Source: patent US20040259770A1, “Method for determining leukocyte activation” (Rush University Medical Center, priority 2003, published 2004)

Assays:
eosinophils [1] = experiment: Eosinophil superoxide production (cytochrome c reduction) in protein-coated tissue culture wells; format: cell-based, human; conditions: for inhibition of superoxide production stimulated by immobilized lactoferrin (in words): lower concentrations of heparin, any of the concentrations of chondroitin sulfate (30 to 1000 micrograms per milliliter); for inhibition of superoxide production stimulated by 30 micrograms per milliliter of immobilized lactoferrin: heparin 1000 micrograms per milliliter (highest concentration tested), 120 minutes at 37° C
Experimental: Neutrophils were isolated from venous blood of healthy adult volunteers by density gradient centrifugation through lymphocyte separation medium (BioWhittaker; Walkersville, Md.) as described previously (Haskell M. D., et al., Blood 86:4627-4637 (1995)) with one modification. Isotonicity was restored following the brief hypotonic lysis steps by the addition of 2× concentrated Hank's Balanced Salt Solution (HBSS) (Gibco; Grand Island, N.Y.) (without Ca^2+ and Mg^2+) containing 5 mM HEPES, pH 7.4. The cells were suspended in HEPES (10 mM)-buffered HBSS (with Ca^2+ and Mg^2+), pH 7.4, containing 1 milligram per milliliter of human serum albumin (HSA) (Sigma Chemical Co.) (HEPES-HBSS-HSA buffer). Neutrophil purity was routinely greater than 95 percent, with eosinophils representing the remainder of the cells. Eosinophils were isolated from the neutrophil preparations by negative selection (Hansel T. T., et al., J. Immunol. Meth. 145:105-10 (1991)) using anti-CD16 immunomagnetic beads as described by the manufacturer (Miltenyi Biotec, Inc., Auburn, Calif.). The eosinophils were suspended in HEPES-HBSS-HSA buffer. Eosinophil purity was routinely greater than 95 percent as determined by counting Wright-stained cytospin preparations. In some assays, an aliquot of the neutrophil preparation was held on ice for later use.
Superoxide production was measured essentially as described elsewhere (Motegi, Y., and H. Kita, J. Immunol. 161:4340 (1998)). Briefly, wells in a 96-well (flat bottom) tissue culture plate (Corning, Inc.; Corning, N.Y.) were coated with human milk lactoferrin (Sigma Chemical Co.) or human secretory IgA (ICN Biomedical; Aurora, Ohio) by incubation with 50 microliters of the indicated concentrations of the proteins in phosphate buffered saline (PBS) overnight at 4° C. Non-specific protein binding sites were blocked by subsequent incubation with 100 microliters of 25 milligrams per milliliter of HSA in PBS for 2 hours at 37° C., and the tissue culture wells were washed twice with PBS before use. Aliquots (5×10^4 cells) of eosinophils or neutrophils were added to the wells and were incubated in HEPES-HBSS—HSA buffer containing 50 micromolar cytochrome c (Sigma Chemical Co.) for 120 minutes at 37° C. in a Ceres UV900HDi microplate reader (Bio-Tek Instruments, Inc., Winooski, Vt.). Total incubation volume was 0.2 milliliters. Absorbance at 550 nanometers was recorded at 15-minute intervals, and superoxide production was calculated as described previously (Motegi, Y., and H. Kita, J. Immunol. 161:4340 (1998)). Results are expressed as nanomoles superoxide per 10^5 cells after subtraction of spontaneous production, which was measured in tissue culture wells coated only with HSA. GM-CSF (R & D Systems; Minneapolis, Minn.), porcine heparin (Sigma Chemical Co.), or chondroitin sulfate C (Sigma Chemical Co.) was added to the incubation mixtures in some assays as indicated.

eosinophils [2] = experiment: Eosinophil leukotriene C4 production by ELISA; format: cell-based, human
Experimental: Eosinophils (2×10^5) were incubated in the presence and absence of 100 pg/ml GM-CSF in RPMI 1640 containing 10 mM HEPES for 1 hr at 37° C. in tissue culture wells precoated with lactoferrin or secretory IgA as above with one modification. The tissue culture wells were not treated with HSA and HSA was not added to the incubation buffer to minimize loss of leukotriene C4. Total incubation volume was 0.2 ml. Reactions were stopped by centrifugation at 300 g for 5 min at 4° C., and supernatants were stored at −20° C. until measurement of leukotriene C4 content by a leukotriene C4/D4/E4 ELISA (Amersham Pharmacia Biotech; Piscataway, N.J.). Spontaneous leukotriene C4 production was determined with eosinophils incubated in untreated tissue culture wells.

eosinophils [3] = experiment: Eosinophil degranulation: EDN release by ELISA; format: cell-based, human; conditions: 100 picograms per milliliter GM-CSF, 3 and 10 micrograms per milliliter immobilized lactoferrin
Experimental: Eosinophils (2×10^5) were incubated in the presence and absence of 100 picograms per milliliter of GM-CSF in RPMI 1640 containing 1 milligram per milliliter of HSA for 4 hours at 37° C. in 5 percent CO2 in tissue culture wells precoated with lactoferrin or secretory IgA as above. Total incubation volume was 0.2 milliliters. Reactions were stopped by centrifugation at 300 g for 5 minutes at 4° C., and supernatants were stored at −20° C. until measurement of eosinophil-derived neurotoxin (EDN) content by specific ELISA (MBL International, Watertown, Mass.). Spontaneous release of EDN was determined with cells incubated in HSA-coated wells.

[4] = tested on: lactoferrin receptors on eosinophils; experiment: Binding of 125I-labeled lactoferrin by eosinophils, Scatchard analysis; set-up: species or system human; conditions: 5 micromolar transferrin, 90 nanomolar 125I-labeled lactoferrin, n=2
Experimental: Lactoferrin (100 micrograms) was radioiodinated using IODO-GEN iodination reagent (Pierce; Rockford, Ill.) according to the procedure supplied by the manufacturer. The lactoferrin was incubated with 400 micro Curies Na^125I (PerkinElmer Life Sciences; Boston, Mass.) for 3 min, and the ^125I-labeled lactoferrin was separated from free Na^125I by chromatography through a 5-ml D-Salt dextran desalting column (Pierce) using PBS as the elution buffer. Protein concentration of the ^125I-labeled lactoferrin was measured by the BCA assay (Pierce). Specific activity of the ^125I-labeled lactoferrin was 34,800 cpm/pmole. […] Binding of ^125I-labeled lactoferrin by eosinophils was determined using a modification of previously described protocols for eosinophils. Motegi et al. J. Immunol. […] In some experiments as indicated, binding was measured in the presence of excess unlabeled transferrin. […] The supernatant was removed by careful aspiration, and after quick-freezing on dry ice the tip of the tube containing the cell pellet was excised and the radioactivity was measured by gamma counting (Beckman Coulter Gamma 5500B). Specific binding was determined as the difference between total binding and binding in the presence of the excess unlabeled lactoferrin. Binding constants were determined by Scatchard analysis (Scatchard, G., Ann. N.Y. Acad. Sci. 51:660 (1949)).

For “GM-CSF: granulocyte macrophage colony stimulating factor (R & D Systems)”, the “reduction by GM-CSF of the concentration of immobilized lactoferrin required for maximal superoxide production or EDN release” value (eosinophils [1]; 100 picograms per milliliter GM-CSF) was “approximately three-fold”, the “effect of GM-CSF on superoxide production stimulated by immobilized lactoferrin” value (eosinophils [1]; 100 picograms per milliliter GM-CSF, 10 micrograms per milliliter immobilized lactoferrin) was “enhanced the amount of superoxide production” and the “effect of GM-CSF on superoxide production stimulated by immobilized lactoferrin” value (eosinophils [1]; 100 picograms per milliliter GM-CSF, higher concentrations of immobilized lactoferrin) was “did not appear to increase the level of superoxide production”. For the same substance, the “GM-CSF stimulated superoxide production” value (eosinophils [1]; GM-CSF alone (100 picograms per milliliter), 2-hour time point, five assays) was 2.8±0.7 nanomoles of superoxide per 10^5 eosinophils, the “leukotriene C4 production” value (eosinophils [2]; 100 picograms per milliliter GM-CSF alone, 1 hour) was 175 picograms leukotriene C4 per 10^6 eosinophils and the “effect of GM-CSF on leukotriene C4 release stimulated by immobilized lactoferrin” value (eosinophils [2]; 100 picograms per milliliter GM-CSF, 10 to 100 micrograms per milliliter immobilized lactoferrin) was “significantly enhanced leukotriene C4 release”. The “effect of GM-CSF on EDN release stimulated by immobilized lactoferrin” value (eosinophils [3]) was “significantly enhanced EDN release”.

In the case of “chondroitin sulfate [reference compound]”, the “effect on superoxide production stimulated by immobilized lactoferrin (in words)” value (eosinophils [1]; 1000 micrograms per milliliter, 30 micrograms per milliliter immobilized lactoferrin) is reported as “slight, but statistically significant, increase in superoxide production” and the “inhibition of superoxide production stimulated by immobilized lactoferrin (in words)” value (eosinophils [1]) is reported as “neither the lower concentrations of heparin nor any of the concentrations of chondroitin sulfate inhibited the eosinophil superoxide production”.

With heparin [reference compound] the “inhibition of superoxide production stimulated by 10 micrograms per milliliter immobilized secretory IgA” value (eosinophils [1]; 1000 micrograms per milliliter heparin, not statistically significant (p=0.07)) was 28+/−11%, the “inhibition of superoxide production stimulated by 30 micrograms per milliliter of immobilized lactoferrin” value (eosinophils [1]) was “approximately 25%” and the “inhibition of superoxide production stimulated by 30 micrograms per milliliter of immobilized lactoferrin” value (eosinophils [1]; listed as Heparin) was 25%. For the same substance, the “inhibition of superoxide production stimulated by immobilized lactoferrin (in words)” value (eosinophils [1]) was “neither the lower concentrations of heparin nor any of the concentrations of chondroitin sulfate inhibited the eosinophil superoxide production”.

“immobilized transferrin: transferrin, family member of lactoferrin, coated on tissue culture wells [reference compound]” was tested, and the “stimulation of eosinophil superoxide production (in words)” value (eosinophils [1]; 1 to 100 micrograms per milliliter of the protein, 2 hours at 37° C) was “did not stimulate superoxide production”.

“transferrin: unlabeled transferrin used in excess as competitor in the binding experiments [reference compound]” was tested, and the “inhibition of eosinophil binding of 125I-labeled lactoferrin” value [4] was “not inhibited”.
